From patent publication US7887852B2, “Soft gel capsules containing polymethoxylated flavones and palm oil tocotrienols” (Soft Gel Technologies, Inc., priority 2005, dated 2011)

Assay: Randomized crossover pharmacokinetics study of two Sytrinol formulations, single oral dose, serum tangeretin and nobiletin by LC/MS/MS
Parameters: species or system healthy human subjects
Conditions: human, in vivo
Description: The following experiments were undertaken to determine whether citrus polymethoxylated flavones (PMFs) can be detected and quantitated in serum obtained from healthy adults after a single-dose administration of Sytrinol™ capsules (containing 1053 mg of total PMFs) and to compare oral bioavailabilities of two Sytrinol™ formulations in healthy human subjects. This study was conducted as a randomized crossover trial in ten healthy adults, five men and five women, age 23±3 years. […]
Peripheral blood was taken by venipuncture at time 0 (baseline) and times 0.25, 0.5, 1, 2, 4, 6, 8, 24 and 48 hours after ingestion of Sytrinol™ capsules. […] Tangeretin and nobiletin were detected in serum samples and quantitated by LC/MS/MS.
The study was designed to determine whether PMFs can be detected and quantitated in serum obtained from healthy adults after a single dose administration of Sytrinol™ capsules (containing 1053 mg of total PMFs) and to compare oral bioavailabilities of two Sytrinol™ formulations in healthy human subjects. […]
A method of serum extraction and LC/MS/MS analysis of PMF was developed. A Varian 1200 L LC/MS/MS system equipped with ESI and APCI sources was used to identify and quantify tangeretin and nobiletin. […]

COc1ccc(-c2cc(=O)c3c(OC)c(OC)c(OC)c(OC)c3o2)cc1OC [nobiletin]
AUC0-48h of nobiletin compared with tangeretin: significantly higher
